Measured values as given in patent US20240350447A1, “DELIVERY METHODS FOR TREATING BRAIN AND CENTRAL NERVOUS SYSTEM DISEASES” (JENIVISION INC., priority 2021, published 2024).
Values joined by “and” are separate entries in the source; they are usually repeats but may differ in a detail not shown here. Equal values may be shown once. Read-outs that look alike come from different tables or passages of the source.

What was measured:
[1] = Biodistribution of DHA after periorbital skin (NIODP) application to one eye; format: in vivo, Cynomolgus monkeys; settings: for DHA in cornea / DHA in upper eyelid / DHA in vitreous humor / Retina/Upper eyelid ratio of DHA / concentration at 0.5 h / concentration at 3 h / concentration at 6 h / concentration at 24 h / concentration at 0 h / OD/OS retina ratio of DHA: 6755.1 μg to OS via NIODP; for concentration at 0.5 h / concentration at 3 h / concentration at 6 h / concentration at 24 h / concentration at 0 h / Kp: cynomolgus monkey; for OD/OS retina ratio of DHA: undosed/dosed retina
Protocol: An experiment was performed to determine the biodisposition of DHA following topical application to the periorbital skin that surrounds the anterior portion of the globe was performed.
Docosahexaenoic acid (DHA) is an omega-3 fatty acid and an essential component for neuronal formation, function and protection. […] […] High concentrations of DHA (from 35.6 to 97.3 μg/g) were detected in the undoes retina, which is similar to the dosed retina.
Moreover, compared to the baseline retina/plasma ratio of 7-fold, and with no significant changes in plasma, the retina/plasma ratios of DHA in the undosed eye were at least 30-fold at each post dose timepoint, signifying that the undosed retina uptake of DHA was not from blood circulation.

[2] = Baseline endogenous levels of DHA, DHA-EE and JV-DE1; format: in vivo; settings: undosed Bama minipigs
Protocol: Endogenous levels were measured in the plasma, cerebrospinal fluid, ocular tissues (retina, optic nerve, ocular muscles), and brain. The endogenous levels DHA are not attributable to NIODP administration of DHA, DHA-EE, or JV-DE1. The baseline data collected in Table 4 was taken from the same lot of pigs, from the same vendor, as the information collected in Tables 5-7.

[3] = DHA distribution after single periorbital skin administration; format: in vivo, Bama minipigs; settings: for concentration at 3 h: Bama, minipig, topical, 6092 μg/eye
Protocol: In this example, 6092 μg/eye of DHA was applied to the periorbital skin of a left eye of a Bama minipig. […] 27133.8 ng/g of tissue and 24795.8 ng/g of tissue of DHA was measured in the left and right halves of the brain, respectively. Taking the average of these two numbers, the amount of DHA present in the brain 3 hours post-dosage was 25964.9 ng/g.
Given that the average Bama pig brain weighs around 60 g, the amount of DHA delivered to the brain can be estimated to be 312,408 ng or 312 μg. Therefore, the percentage of administered dose=312 μg delivered to brain/6092 μg dosed=5.1% of DHA topically administered to the pig via periorbital administration was delivered to the brain. As a comparison, only about 0.025% of DHA that is orally administered is delivered to the brain or CNS.

[4] = oral administration; comparison value; cited from earlier work
[5] = Baseline endogenous levels of DHA in monkeys; format: in vivo; settings: no NIODP dosing
Source text: The endogenous levels DHA is originated from normal diet and not attributable to NIODP administration.

[6] = OD (undosed eye), 0 h (baseline)
[7] = 3 h, DHA 6092 μg to periorbital skin of left eye

CC/C=C\C/C=C\C/C=C\C/C=C\C/C=C\C/C=C\CCC(=O)O [DHA, docosahexaenoic acid]
DHA in the undosed right cornea and vitreous humor ([1]; DHA to OS via NIODP): No DHA was detectable
DHA in cornea [1, 6]: BLQ
DHA in upper eyelid [1, 6]: BLQ
DHA in vitreous humor [1, 6]: BLQ
Retina/Upper eyelid ratio of DHA ([1]; OD (undosed eye), 0.5 h): 172%
Retina/Upper eyelid ratio of DHA ([1]; OD (undosed eye), 3 h): 1678%
Retina/Upper eyelid ratio of DHA ([1]; OD (undosed eye), 6 h): 1057%
Retina/Upper eyelid ratio of DHA ([1]; OD (undosed eye), 24 h): 672%
DHA in cornea ([1]; OS (dosed eye), 0 h (baseline)): BLQ
DHA in upper eyelid ([1]; OS (dosed eye), 0 h (baseline)): BLQ
DHA in vitreous humor ([1]; OS (dosed eye), 0 h (baseline)): BLQ
Retina/Upper eyelid ratio of DHA ([1]; OS (dosed eye), 0.5 h): 29%
Retina/Upper eyelid ratio of DHA ([1]; OS (dosed eye), 3 h): 16%
Retina/Upper eyelid ratio of DHA ([1]; OS (dosed eye), 6 h): 735%
Retina/Upper eyelid ratio of DHA ([1]; OS (dosed eye), 24 h): 292%
concentration at 0.5 h ([1]; cornea of the undosed right eye (OD), topical, OD (undosed eye), 0.5 h, read-out: DHA in cornea): 0 ng/g
concentration at 3 h ([1]; cornea of the undosed right eye (OD), topical, OD (undosed eye), 3 h, read-out: DHA in cornea): 0 ng/g
concentration at 6 h ([1]; cornea of the undosed right eye (OD), topical, OD (undosed eye), 6 h, read-out: DHA in cornea): 0 ng/g
concentration at 24 h ([1]; cornea of the undosed right eye (OD), topical, OD (undosed eye), 24 h, read-out: DHA in cornea): 0 ng/g
concentration at 0 h ([1]; plasma, topical, 0 h (baseline), read-out: DHA in plasma): 2400 ng/mL
concentration at 0.5 h ([1]; plasma, topical, 0.5 h post dose, read-out: DHA in plasma): 2200 ng/mL
concentration at 3 h ([1]; plasma, topical, 3 h post dose, read-out: DHA in plasma): 3100 ng/mL
concentration at 6 h ([1]; plasma, topical, 6 h post dose, read-out: DHA in plasma): 2100 ng/mL
concentration at 24 h ([1]; plasma, topical, 24 h post dose, read-out: DHA in plasma): 1200 ng/mL
Kp ([1]; retina / plasma, baseline (before dosing), read-out: Baseline retina/plasma ratio of DHA): 7
concentration at 0 h ([1]; retina of the dosed left eye (OS), topical, OS (dosed eye), 0 h (baseline), read-out: DHA in retina): 16500 ng/g
Kp ([1]; retina of the undosed eye / plasma, topical, 6775.1 μg/eye, each post dose timepoint, DHA to OS via NIODP, read-out: Retina/plasma ratio of DHA in the undosed eye): ≥ 30
concentration at 0 h ([1]; retina of the undosed right eye (OD), topical, OD (undosed eye), 0 h (baseline), read-out: DHA in retina): 16500 ng/g
concentration at 0.5 h ([1]; retina of the undosed right eye (OD), topical, OD (undosed eye), 0.5 h, read-out: DHA in retina): 70800 ng/g
concentration at 3 h ([1]; retina of the undosed right eye (OD), topical, OD (undosed eye), 3 h, read-out: DHA in retina): 97300 ng/g
concentration at 6 h ([1]; retina of the undosed right eye (OD), topical, OD (undosed eye), 6 h, read-out: DHA in retina): 78200 ng/g
concentration at 24 h ([1]; retina of the undosed right eye (OD), topical, OD (undosed eye), 24 h, read-out: DHA in retina): 35600 ng/g
concentration at 0.5 h ([1]; upper eyelid of the undosed right eye (OD), topical, OD (undosed eye), 0.5 h, read-out: DHA in upper eyelid): 41100 ng/g
concentration at 3 h ([1]; upper eyelid of the undosed right eye (OD), topical, OD (undosed eye), 3 h, read-out: DHA in upper eyelid): 5800 ng/g
concentration at 6 h ([1]; upper eyelid of the undosed right eye (OD), topical, OD (undosed eye), 6 h, read-out: DHA in upper eyelid): 7400 ng/g
concentration at 24 h ([1]; upper eyelid of the undosed right eye (OD), topical, OD (undosed eye), 24 h, read-out: DHA in upper eyelid): 5300 ng/g
concentration at 0.5 h ([1]; vitreous humor of the dosed left eye (OS), topical, OS (dosed eye), 0.5 h, read-out: DHA in vitreous humor): 0 ng/mL
concentration at 3 h ([1]; vitreous humor of the dosed left eye (OS), topical, OS (dosed eye), 3 h, read-out: DHA in vitreous humor): 0 ng/mL
concentration at 6 h ([1]; vitreous humor of the dosed left eye (OS), topical, OS (dosed eye), 6 h, read-out: DHA in vitreous humor): 0 ng/mL
concentration at 24 h ([1]; vitreous humor of the dosed left eye (OS), topical, OS (dosed eye), 24 h, read-out: DHA in vitreous humor): 0 ng/mL
concentration at 0.5 h ([1]; vitreous humor of the undosed right eye (OD), topical, OD (undosed eye), 0.5 h, read-out: DHA in vitreous humor): 0 ng/mL
concentration at 3 h ([1]; vitreous humor of the undosed right eye (OD), topical, OD (undosed eye), 3 h, read-out: DHA in vitreous humor): 0 ng/mL
concentration at 6 h ([1]; vitreous humor of the undosed right eye (OD), topical, OD (undosed eye), 6 h, read-out: DHA in vitreous humor): 0 ng/mL
concentration at 24 h ([1]; vitreous humor of the undosed right eye (OD), topical, OD (undosed eye), 24 h, read-out: DHA in vitreous humor): 0 ng/mL
OD/OS retina ratio of DHA ([1]; 0 h (baseline)): 100%
OD/OS retina ratio of DHA ([1]; 0.5 h): 64%
OD/OS retina ratio of DHA ([1]; 3 h): 146%
OD/OS retina ratio of DHA ([1]; 6 h): 99%
OD/OS retina ratio of DHA ([1]; 24 h): 75%
Baseline endogenous concentration in brain [2]: 20758 ng/g
Baseline endogenous concentration in cerebrospinal fluid [2]: BLQ
Baseline endogenous concentration in eye tissue homogenate including (Retina, optic nerve, ocular muscle) [2]: 2643.5 ng/g
Baseline endogenous concentration in plasma [2]: 122.1 ng/mL
Drug Concentration in Plasma ([3]; 0 h, DHA 6092 μg to periorbital skin of left eye): BLQ
Drug Concentration in Plasma ([3]; 1 h, DHA 6092 μg to periorbital skin of left eye): BLQ
Percentage of administered dose delivered to the brain ([3]; 3 h, DHA 6092 μg periorbital, whole brain estimate): 5.1%
% of administered dose: Cerebrospinal fluid [3, 7]: 0%
% of administered dose: brain-left [3, 7]: 6%
% of administered dose: brain-right [3, 7]: 4%
% of administered dose: inferior rectus muscle-left [3, 7]: 0.004%
% of administered dose: inferior rectus muscle-right [3, 7]: 0.01%
% of administered dose: lateral rectus muscle-left [3, 7]: 0.02%
% of administered dose: lateral rectus muscle-right [3, 7]: 0.03%
% of administered dose: medial rectus muscle-left [3, 7]: 0.01%
% of administered dose: medial rectus muscle-right [3, 7]: 0.01%
% of administered dose: optic nerve-left [3, 7]: 0.03%
% of administered dose: optic nerve-right [3, 7]: 0.05%
% of administered dose: retina-left [3, 7]: 0.2%
% of administered dose: retina-right [3, 7]: 0.1%
% of administered dose: superior rectus muscle-left [3, 7]: 0.01%
% of administered dose: superior rectus muscle-right [3, 7]: 0%
Drug Concentration in Plasma [3, 7]: BLQ
concentration at 3 h ([3]; brain (average of left and right halves), 3 h, DHA 6092 μg to periorbital skin of left eye, read-out: Average DHA present in the brain (left and right halves)): 26000 ng/g
concentration at 3 h ([3]; brain, left half, 3 h, DHA 6092 μg to periorbital skin of left eye, read-out: Drug Concentration in Tissue: brain-left): 27100 ng/g
concentration at 3 h ([3]; brain, right half, 3 h, DHA 6092 μg to periorbital skin of left eye, read-out: Drug Concentration in Tissue: brain-right): 24800 ng/g
concentration at 3 h ([3]; cerebrospinal fluid, 3 h, DHA 6092 μg to periorbital skin of left eye, read-out: Drug Concentration in Tissue: Cerebrospinal fluid): 0 ng/g
concentration at 3 h ([3]; inferior rectus muscle, left (dosed side), 3 h, DHA 6092 μg to periorbital skin of left eye, read-out: Drug Concentration in Tissue: inferior rectus muscle-left): 2750 ng/g
concentration at 3 h ([3]; inferior rectus muscle, right (undosed side), 3 h, DHA 6092 μg to periorbital skin of left eye, read-out: Drug Concentration in Tissue: inferior rectus muscle-right): 2340 ng/g
concentration at 3 h ([3]; lateral rectus muscle, right, 3 h, DHA 6092 μg to periorbital skin of left eye, read-out: Drug Concentration in Tissue: lateral rectus muscle-right): 1980 ng/g
concentration at 3 h ([3]; lateral rectus muscle, 3 h, DHA 6092 μg to periorbital skin of left eye, read-out: Drug Concentration in Tissue: lateral rectus muscle-left): 8100 ng/g
concentration at 3 h ([3]; medial rectus muscle, left (dosed side), 3 h, DHA 6092 μg to periorbital skin of left eye, read-out: Drug Concentration in Tissue: medial rectus muscle-left): 2720 ng/g
concentration at 3 h ([3]; medial rectus muscle, right, 3 h, DHA 6092 μg to periorbital skin of left eye, read-out: Drug Concentration in Tissue: medial rectus muscle-right): 1520 ng/g
concentration at 3 h ([3]; optic nerve, left (dosed side), 3 h, DHA 6092 μg to periorbital skin of left eye, read-out: Drug Concentration in Tissue: optic nerve-left): 10400 ng/g
concentration at 3 h ([3]; optic nerve, right (undosed side), 3 h, DHA 6092 μg to periorbital skin of left eye, read-out: Drug Concentration in Tissue: optic nerve-right): 15300 ng/g
concentration at 3 h ([3]; retina, left (dosed side), 3 h, DHA 6092 μg to periorbital skin of left eye, read-out: Drug Concentration in Tissue: retina-left): 61700 ng/g
concentration at 3 h ([3]; retina, right (undosed side), 3 h, DHA 6092 μg to periorbital skin of left eye, read-out: Drug Concentration in Tissue: retina-right): 42100 ng/g
concentration at 3 h ([3]; superior rectus muscle, right, 3 h, DHA 6092 μg to periorbital skin of left eye, read-out: Drug Concentration in Tissue: superior rectus muscle-right): 0 ng/g
concentration at 3 h ([3]; superior rectus muscle, 3 h, DHA 6092 μg to periorbital skin of left eye, read-out: Drug Concentration in Tissue: superior rectus muscle-left): 3050 ng/g
Share of orally administered DHA delivered to the brain or CNS [4]: about 0.025%
Calculated Concentration, endogenous DHA in cornea ([5]; double blank samples): BLQ
Calculated Concentration, endogenous DHA in plasma ([5]; double blank samples): 0.5 µg/mL and 0.6 µg/mL
Calculated Concentration, endogenous DHA in retina ([5]; double blank samples): 16 µg/g and 17 µg/g
Calculated Concentration, endogenous DHA in upper eyelid ([5]; double blank samples): BLQ
Calculated Concentration, endogenous DHA in vitreous humor ([5]; double blank samples): BLQ
Endogenous levels of DHA in monkey ocular tissues ([5]; LLOQ=0.5 μg/mL): mostly below the lower limit of quantification (LLOQ=0.5 μg/mL) or negligible
